The text below walks through data of US10426757B2, “Compositions and methods for promoting intestinal stem cell and/or non-stem progenitor cell function” (Whitehead Institute for Biomedical Research, priority 2014, dated 2019).

“Also recorded” adds a separate entry of the source.

Assay [1] concerns crypt base columnar cells and transit-amplifying cells. Kind of assay: BrdU incorporation into ISCs and TA-cells. It is filed as in vivo, mouse. The conditions noted are these: GW501516-treated mice, 4 hours after BrdU pulse. As to the method: Mice were housed in the Unit for Laboratory Animal Medicine at the Whitehead Institute for Biomedical Research and Koch Institute for Integrative Cancer Research. Lgr5-EGFP-IRES-CreERT2 mice (strain name: […] B6.129S4-Gt(ROSA)26Sor^tm1Sor/J, stock number 003474) were obtained from the Jackson Laboratory. […] Control mice were age-matched and fed normal chow ad libitum. GW501516 (Enzo) was reconstituted in DMSO at 4.5 mg ml^-1 and diluted 1:10 in a solution of 5% PEG400 (Hampton Research), 5% Tween80 (Sigma), 90% H2O for a daily intraperitoneal injection of 4 mg/kg. Apc exon 14 was excised by tamoxifen suspended in sunflower seed oil (Spectrum […]) at a concentration of 10 mg ml^-1, and 250 μl per 25 g of body weight was administered by intraperitoneal injection to mice twice over 4 days before harvesting tissue. BrdU was prepared at 10 mg ml^-1 in PBS, passed through 0.22 μm filter and injected at 100 mg kg^-1. As previously described^5, tissues were fixed in 10% formalin, paraffin embedded and sectioned. Antigen retrieval was performed with Borg Decloaker RTU solution (Biocare Medical) in a pressurized Decloaking Chamber (Biocare Medical) for 3 minutes. […]
(In general: Uptake of a labelled nucleoside into DNA is a usual measure of proliferation.)

The next assay deals with small intestinal crypts. Put plainly: Crypt organoid-forming (clonogenicity) assay in 3-D culture. It is filed as cell-based, mouse. The note with it: crypts from GW501516-treated mice vs vehicle.
Assay [2] deals with Lgr5-GFP^hi ISCs and Lgr5-GFP^low progenitors. Put plainly: Flow cytometry enumeration of Lgr5-GFP^hi ISCs and Lgr5-GFP^low progenitors in Lgr5-EGFP-IRES-CreERT2 mice. It is filed as in vivo, mouse. The conditions noted are these: GW501516 4 mg/kg daily IP, 2-4 weeks, vs vehicle. Background: Flow cytometry measures light scatter and fluorescence of single cells or particles in a stream.
From the text: Mice were housed in the Unit for Laboratory Animal Medicine at the Whitehead Institute for Biomedical Research and Koch Institute for Integrative Cancer Research. Lgr5-EGFP-IRES-CreERT2 mice (strain name: B6.129P2-Lgr5^tm1(cre/ERT2)Cle/J, stock number 008875), and Rosa26-lacZ mice (strain name: B6.129S4-Gt(ROSA)26Sor^tm1Sor/J, stock number 003474) were obtained from the Jackson Laboratory. […] Control mice were age-matched and fed normal chow ad libitum. GW501516 (Enzo) was reconstituted in DMSO at 4.5 mg ml^−1 and diluted 1:10 in a solution of 5% PEG400 (Hampton Research), 5% Tween80 (Sigma), 90% H2O for a daily intraperitoneal injection of 4 mg/kg.
As previously reported and briefly summarized here, small intestines were removed, washed with cold PBS−/−, opened laterally and cut into 3-5 mm fragments. Pieces were washed multiple times with cold PBS−/− until clean, washed 2-3 with PBS−/−/EDTA (10 mM), and incubated on ice for 90-120 minutes while mixing at 30-minute intervals. Crypts were then mechanically separated from the connective tissue by shaking, and filtered through a 70-μm mesh into a 50-ml conical tube to remove villous material and tissue fragments. At this point the suspension was mainly composed of crypts. […] For ISC isolation, the crypt suspensions were dissociated to individual cells with TrypLE Express (Invitrogen). Cell labeling consisted of an antibody cocktail comprising CD45-PE (eBioscience, 30-F1 1), CD31-PE (Biolegend, Mecl3.3), Ter119-PE (Biolegend, Ter119), CD24-Pacific Blue (Biolegend, M1/69), CD117-APC/Cy7 (Biolegend, 2BS), and EPCAM-APC (eBioscience, G8.8). ISCs were isolated as Lgr5-EGFP^hiEpcam^+CD24^low/−CD31^−Ter119 CD45^−7-AAD^−. EGFP^low progenitors were isolated as EGFP^lowEpcam^+CD24^low/−CD31^−Ter119^−CD45^−7-AAD^−, and Paneth cells were isolated as CD24^hiSidescatter^hiLgr5-EGFP^−Epcam^+CD31^−Ter119^−CD45^−7-AAD^− with a BD FACS Aria II SORP cell sorter into supplemented crypt culture medium for culture. Dead cells were excluded from the analysis with the viability dye 7-AAD (Life Technologies).

`Cc1cc(SCc2sc(-c3ccc(C(F)(F)F)cc3)nc2C)ccc1OCC(=O)O` [GW501516, 2-[2-methyl-4-[[4-methyl-2-[4-(trifluoromethyl)phenyl]-1,3-thiazol-5-yl]methylsulfanyl]phenoxy]acetic acid]: the “proliferation of CBC cells and transit-amplifying cells” value in assay [1] is given as “augmented; also recorded: enhanced the proliferation”. The “organoid-forming capacity of intestinal crypts” value in the assay with small intestinal crypts was “more organoids; also recorded: boosted the organoid-forming capacity”. In assay [2] (4 mg/kg), the “number of Lgr5-GFP^low progenitors” value is recorded as “not in progenitor cells; also recorded: no effect” and the “number/frequency of Lgr5-GFP^hi ISCs” value is “augmented; also recorded: selective increase; also recorded: doubled the number”. Further, the “number/frequency of Lgr5-GFP^hi ISCs” value in assay [2] (listed as GW501515) was “sufficient to enhance”.
